Publication PMC13086964, “USP7 deubiquitinase stabilizes FAN1 to support DNA crosslink repair and suppress CAG repeat expansion” (Nature Communications, 2026)
Each block holds one compound with its values, some of them ahead of it. Where no end group is shown, it is not given here. The star is where a group is joined. FITC = O=C1OC2(c3ccc(O)cc3Oc3cc(O)ccc32)c2ccc(NC(=S)*)cc21; Biotin = O=C1N[C@H]2[C@H](CS[C@H]2CCCCC(=O)*)N1; Ahx = NCCCCCC(=O)O

Columns and labels:
FAN1-USP7 = assay: GFP-Trap co-IP after UAE inhibition, FAN1-USP7 binding; format: cell-based, human; settings: HEK293T cells, 10 μM for 2 h
Experimental: Cells were lysed in NP-40 buffer [50 mM tris-HCl (pH 7.5), 120 mM NaCl, 1 mM EDTA, 6 mM EGTA, 15 mM sodium pyrophosphate, and 1% NP-40, supplemented with phosphatase inhibitors (20 mM NaF and 1 mM Na3VO4) and protease inhibitors (1 mM benzamidine, 0.1 mM PMSF and cOmplete™ Protease Inhibitor Cocktail)], incubated with Benzonase (Merck) for at least 30 min at 4 °C, and clarified by centrifugation. Between 1 and 3 mg of lysates were incubated with anti-FLAG M2 (Sigma-Aldrich) or ChromoTek GFP-Trap® Agarose resin (Proteintech) for 2 h or overnight at 4 °C. The beads were then washed three times with NP-40 buffer and once with TEN100 buffer. Retrieved protein complexes were boiled in SDS sample buffer and analysed by SDS-PAGE followed by immunoblotting.
(§1) Figure S1 (related to Figure 1). […]
ubiquitin. (A) HEK293eGFP-FAN1 cells were transfected either with non-targeting (Ctrl) or the indicated siRNA oligos. 24 h later, GFP-FAN1 expression was induced with Dox (100 ng/ml). 24 h post induction, cells were lysed and whole-cell extracts were subjected to GFP-Trap resin. Inputs and recovered protein complexes were analysed by immunoblotting. (B) HEK293 cells were transfected with either e.v. or GFP-FAN1-wt expressing constructs. […] Inputs and recovered protein complexes were analysed by immunoblotting. […] Inputs and recovered protein complexes were analysed by immunoblotting. […]

[1] = tested on: cellular ubiquitin conjugates; assay: cellular ubiquitin conjugates after UAE inhibition; format: cell-based; settings: HEK293T cells, 10 μM for 2 h
Experimental: as §1
ubiquitin. (A) HEK293eGFP-FAN1 cells were transfected either with non-targeting (Ctrl) or the indicated siRNA oligos. 24 h later, GFP-FAN1 expression was induced with Dox (100 ng/ml). 24 h post induction, cells were lysed and whole-cell extracts were subjected to GFP-Trap resin. Inputs and recovered protein complexes were analysed by immunoblotting. (B) HEK293 cells were transfected with either e.v. or GFP-FAN1-wt expressing constructs. 48 h later, cells were lysed and whole-cell extracts were incubated with a FAN1-derived 60-mer peptide (aa 118 to 177) for 2 h and subjected to GFP-Trap resin. Inputs and recovered protein complexes were analysed by immunoblotting. (C) HEK293T cells were transfected with either e.v. or GFP-FAN1-wt expressing constructs. 48 h later, cells were either mock-treated (-) or treated (+) with TAK-243 (10 μM) for 2 h, lysed and whole-cell extracts were subjected to GFP-Trap resin. Inputs and recovered protein complexes were analysed by immunoblotting. The experiments in (A-C) were repeated three independent times.
(1 picture or pasted object on this page, not shown here)

USP7 = assay: streptavidin pulldown of biotinylated FAN1 peptides with recombinant His-USP7; format: binding, human; settings: 10 µg peptide on Strep-Tactin XT 4Flow resin, 0.5 µg recombinant USP7, 2 h at 4 °C, immunoblot; for USP7 binding of biotinylated FAN1 peptide: 12mer TRAF peptides, repeated three times; for USP7 binding of biotinylated FAN1 UBL peptide: 13mer UBL peptides
Experimental: (§2) Fig. 2 FAN1 associates with the TRAF-like and UBL domains of USP7. A Top: schematic representation of the human USP7 protein indicating point mutants. TRAF tumour necrosis factor receptor associated factor (orange), CD catalytic domain (cyan), UBL ubiquitin-like (yellow to brown). Bottom: HEK293^eGFP-FAN1 cells were transfected with either e.v. or the indicated FLAG-USP7 expression constructs. 24 h later, GFP-FAN1 expression was induced with Dox (100 ng/ml). 48 h post induction, cells were lysed and whole-cell extracts were subjected to IP using anti-FLAG M2 affinity resin. Inputs and recovered protein complexes were analysed by immunoblotting. Asterisk indicates IgG heavy chain from anti-FLAG M2 affinity resin. B Sequences of the biotinylated 12-mer FAN1-derived TRAF peptides. The corresponding amino acids are indicated. Key residues are highlighted in bold. B, C Biotinylated FAN1 TRAF peptides (10 µg) were immobilized on Strep-Tactin®XT-4Flow® resin and incubated with recombinant purified His-USP7. Inputs and recovered His-USP7 were analysed by immunoblotting. D Fluorescence polarization (FP) binding curves of FITC-labelled FAN1-derived 8mer peptides: wild-type (wt; black circle), P181A (green triangle), Q182A (orange diamond), S184A (red square). The corresponding amino acids are indicated. Key residues are highlighted in bold. FP was measured as a function of USP7-TRAF (aa 2–207) concentration. FP values were normalized by expressing the millipolarization (mP) of each sample relative to the corresponding wild-type peptide. Background signal was corrected by subtracting baseline FP measured in the absence of USP7-TRAF. Data are presented as the means ± SD of three biological replicates (n = 3). E Top: schematic representation of the human USP7 protein indicating truncation mutants. TRAF tumour necrosis factor receptor associated factor, CD catalytic domain, UBL ubiquitin-like. HEK293^eGFP-FAN1 cells were transfected with either e.v. or the indicated FLAG-USP7 expression constructs. 24 h later, GFP-FAN1 expression was induced with Dox (100 ng/ml). 48 h post induction, cells were lysed and whole-cell extracts were subjected to IP using anti-FLAG M2 affinity resin. Inputs and recovered protein complexes were analysed by immunoblotting. Asterisk indicates IgG heavy chain from anti-FLAG M2 affinity resin. The experiments in (A–C, E) were repeated three independent times.
For peptide pull-down assays, biotinylated FAN1 peptides were incubated with Strep-Tactin® XT 4Flow® resin (IBA LifeScience) at room temperature for 30 minutes and washed four times with 0.1% Triton-PBS and two times with HNE buffer (20 mM HEPES pH 7.5, 0.2 mM EDTA, 0.5% NP-40, 150 mM NaCl, 0.5 mM DTT, 0.1% BSA, 0.5 mM PMSF). […] Beads were then washed three times with HNE buffer, once with TEN300 (20 mM Tris-HCl pH 7.4, 0.1 mM EDTA and 300 mM NaCl) and once with TEN100 buffer. Complexes were boiled in SDS sample buffer and analysed by SDS–PAGE followed by immunoblotting.
Figure S3 (Related to Figure 2). USP7 contacts FAN1 via its UBL domain. […]
Inputs and recovered MBP-His-FAN1 were analysed by immunoblotting. (C) Sequences of the biotinylated 13-mer FAN1-derived UBL peptides. The corresponding amino acids are indicated. Key residues are highlighted in bold. (C and D) Biotinylated FAN1 UBL peptides (10 µg) were immobilized on Strep-Tactin® XT 4Flow® resin and incubated with recombinant purified His-USP7. Inputs and recovered His-USP7 were analysed by immunoblotting. […]
The experiments in (A-E) were repeated three independent times.

USP7 TRAF (aa 2-207) = assay: fluorescence polarization assay, FITC-labelled FAN1-derived peptides; format: binding, human; settings: 8mer FITC-labelled peptides; 20 mM HEPES pH 7.4, 50 mM KCl, 1 mM TCEP, 0.005% Tween-20, 0.2% DMSO; USP7 TRAF 14-point 2-fold from 200 µM; 1 µL of 200 nM peptide added to 19 µL; n = 3
Experimental: as §2, with “Data are presented as the means ± SD of three biological replicates (n = 3). E Top: schematic representation of the human USP7 protein indicating truncation mutants. TRAF tumour necrosis factor receptor associated factor, CD catalytic domain, UBL ubiquitin-like. HEK293^eGFP-FAN1 cells were transfected with either e.v. or the indicated FLAG-USP7 expression constructs. 24 h later, GFP-FAN1 expression was induced with Dox (100 ng/ml). 48 h post induction, cells were lysed and whole-cell extracts were subjected to IP using anti-FLAG M2 affinity resin.” left out, “Asterisk indicates IgG heavy chain from anti-FLAG M2 affinity resin. The experiments in (A–C, E) were repeated three independent times.” left out
USP7 TRAF (aa 2-207) was serially diluted (14-point, 2-fold) in assay buffer (20 mM HEPES (pH 7.4), 50 mM KCl, 1 mM TCEP, 0.005% Tween-20 (v/v), 0.2% DMSO (v/v)) from a top concentration of 200 µM. […] Fluorescence polarization (mP, millipolarization units) was measured using Agilent BioTek Synergy H1 with excitation 485 nm, emission 528 nm, gain 80, in a kinetic read (6 measurements in 30 min). […]

Compound: NS(=O)(=O)OC[C@H]1C[C@@H](Nc2ccnc3cc(-c4cccc(SC(F)(F)F)c4)nn23)[C@H](O)[C@@H]1O [TAK-243]
FAN1-USP7 binding (FAN1-USP7): did not impact FAN1-USP7 binding
cellular ubiquitin conjugates [1]: depletion of cellular ubiquitin conjugates

Compound: Biotin-AGSSPQSAKSTV-NH2 [TRAF3 S184A (12mer), biotinylated 12mer FAN1 peptide, S184A]
USP7 binding of biotinylated FAN1 peptide (USP7; listed as S184A ‘TRAF3’ mutant peptide): failed to bind
USP7 binding of biotinylated FAN1 peptide (USP7; listed as serine residue 184 to alanine (S184A)): abrogated USP7 binding

Compound: {FITC-Ahx}-SSAQSSKS [TRAF3 P181A (8mer), FITC-labelled FAN1-derived 8mer peptide, P181A]
binding to the USP7 TRAF domain (FP) (USP7 TRAF (aa 2-207)): did not abolish the interaction

Compound: {FITC-Ahx}-SSPQSAKS [TRAF3 S184A (8mer), FITC-labelled FAN1-derived 8mer peptide, S184A]
binding to the USP7 TRAF domain (FP) (USP7 TRAF (aa 2-207)): markedly impaired binding

Compound: {FITC-Ahx}-SSPQSSKS [TRAF3 (8mer), FITC-labelled FAN1-derived 8mer peptide, wild-type]
binding to the USP7 TRAF domain (FP) (USP7 TRAF (aa 2-207)): bound efficiently to the USP7 TRAF domain

The remaining lines, values ahead:

USP7 binding of biotinylated FAN1 peptide (USP7): weak USP7 binding
Compound: Biotin-PLEQGSSCNGPG-NH2 [TRAF4 (12mer), biotinylated 12mer FAN1 peptide containing the 358-EQGS-361 motif]

USP7 binding of biotinylated FAN1 UBL peptide (USP7): did not abolish USP7 association
USP7 binding of biotinylated FAN1 UBL peptide (USP7; listed as K158A/K162A ‘UBL2’ mutant peptide): no reduction in USP7 binding
Compound: Biotin-SLASALSRAYVKA-NH2 [UBL2 2KA (12mer), FAN1 UBL2 K158A/K162A (2KA) 13mer peptide]

USP7 binding of biotinylated FAN1 UBL peptide (USP7): exhibited detectable USP7 binding
Compound: Biotin-SLASKLSRKYVKA-NH2 [UBL2 (12mer), biotinylated FAN1-derived 13mer UBL peptide with 158-KLSRK-162]
